Experimental data taken from PMC8544881 (mSphere, 2021).

Biological target: T1, ZBTB25 (Homo sapiens, UniProt P24278)
T1 construct: recombinant ZBTB25 protein
T1 sequence (P24278 1-435): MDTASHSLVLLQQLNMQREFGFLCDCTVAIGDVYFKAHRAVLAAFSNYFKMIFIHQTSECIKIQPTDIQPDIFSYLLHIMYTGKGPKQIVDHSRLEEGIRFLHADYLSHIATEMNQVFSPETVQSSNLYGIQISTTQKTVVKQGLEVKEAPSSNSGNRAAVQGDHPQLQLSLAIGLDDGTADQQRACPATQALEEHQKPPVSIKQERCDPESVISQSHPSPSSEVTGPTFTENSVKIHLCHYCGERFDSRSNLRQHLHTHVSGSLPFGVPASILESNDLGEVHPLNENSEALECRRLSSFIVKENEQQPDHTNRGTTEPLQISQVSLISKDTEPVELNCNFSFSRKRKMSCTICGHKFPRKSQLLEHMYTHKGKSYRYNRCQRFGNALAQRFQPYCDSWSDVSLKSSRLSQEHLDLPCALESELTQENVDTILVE
Assay: zinc ejection assay with FluoZin-3 fluorescence
Type: binding

With `CCN(CC)C(=S)SSC(=S)N(CC)CC` [DS, disulfiram] the IC50 was 10.3 ± 0.3 µM.
dithiopyridine [DP] showed an IC50 of 4.61 ± 0.28 µM.
